Laboratory results: patent publication US10816552B2 (The Governing Council of the University of Toronto, priority 2014, dated 2020)

Assays:
[1] = 1H NMR stability in d-DMSO under dry ambient atmosphere, 24 h; type: physicochemical; conditions: for degradation over 24 hours (1H NMR): 24 hr incubation
Method: FIGS. 2A-C show the results of ^1H NMR stability experiments for exemplary compounds 1-11. (A) Compounds 1, 2 and 7. (B) Compounds 3, 4, 5 and 6. (C) Compounds 8, 9, 10 and 11. The organotellurium compounds (˜150 μM) were dissolved in d-DMSO with 1,3,5-trioxane, the secondary internal standard. The compounds were kept in clear glass 20 mL vials. The vials were kept in a moisture free environment for 24 hours with continuous supply of ambient atmosphere dried using a series of bubblers containing phosphoric acid, potassium hydroxide and calcium sulfate. Aliquots were analyzed by ^1H NMR and the organotellurium signals and the d5-H-DMSO peaks were integrated. The ratio between the DMSO and the organotellurium protons at time 0 were taken and normalized to generate a degradation plot. Experimental error was calculated by generating triplicate integration data from each individual preliminary NMR data. This error takes into consideration of integration bias and instrument fluctuations.
The relative chemical stability of the methyl telluroethers (1-4) were quantified using ^1H NMR by integration of the CH3—Te signals with respect to a residual DMSO-d5 internal standard. Samples were prepared in a solution of DMSO-d6 and placed under a slow continuous stream of dry ambient atmosphere in a clear glass desiccator. This setup allowed the compound's stability to be monitored without interference from atmospheric water (FIG. 2).

[2] = Solubility observations; type: physicochemical
[3] = system: Jurkat cells; assay: Metabolic toxicity assay (WST-1) in Jurkat cells; type: cell-based; conditions: for LD50 / LD50 (metabolic toxicity): Jurkat cells, 24 hour incubation, WST-1
Method: FIGS. 7A, B and C show a) and b) the cell proliferation rate of HCT116 cells as a function of time in the presence of various concentrations of the exemplary compound, Telox-2 (confluency analysis); and c) the metabolic toxicity of the exemplary compound, Telox-2, in Jurkat cells as measured by reduction of WST-1. Cells were incubated with Telox-2 for 24 hours prior to a 30 minute exposure to WST-1.
A 96 well clear fluorometer plate was loaded with 200 μL of Jurkat cells at a culture density of 1×10^6 cells per mL. To each well was added an appropriate amount of a stock solution of Telox/Telox2 in sterile DMSO to reach a desired concentration of Telox/Telox2 (1-1000 micromole). The concentration of DMSO was 1% in all wells. Cells were allowed to incubate for 24 h at 37° C. under normal atmosphere, after which 20 μL of a commercially available solution of WST-1 in PBS (Roche Diagnostics, product #05015944001) was added to each well (gentle pipetting evenly distributed the reagent throughout the well). Cells were allowed to incubate for a further 0.5 h at 37° C. under normal atmosphere, followed by subsequent measurement of the absorbance of each well at 450 nm using a TECAN Safire 2 plate reader. Data was background corrected vs. wells that contained cell growth media (without cells), an appropriate concentration of Telox2, a final concentration of DMSO=1%, and WST-1. Background correction wells were incubated in the same manner as described for cell-positive wells.
To investigate the organotellurium compounds of study as potential probe moieties for MC, the metabolic toxicity of the compounds was evaluated. Organotellurium compounds are often described as toxic, with aryl telluroethers showing cellular toxicity below 100 μM across a range of cell lines under different assay conditions.^9-11,38,39 The toxicity of compounds 8-11 was investigated in a commonly used Jurkat cell line after a 24 hour incubation using the metabolic probe WST-1 (Roche Diagnostics, Laval, Quebec) as per manufacturer's instructions. As compounds 8, 9 and 10 are expected to show degradation over the time frame of the toxicity assay, based on the NMR stability studies, these experiments show the relative toxicity of the compounds and their resulting degradation products (Table 2). […] The LD50 values of the exemplary organotellurium compounds of the present application provide promise for their use as activity based MC probes since the general MC experiment can be achieved at concentrations of ˜100 μM.^5

[4] = NMR degradation in 50/50 d-DMSO/PBS buffer, air and ambient light; type: physicochemical; conditions: air, ambient lighting, room temperature
Description: The ^19F NMR of compound 10 and ^1H NMR of compound 11 were taken at shown time points. Compound 10 used trifluoroacetic acid as the internal standard and compound 11 used d5-DMSO.
To further validate these compounds as potential MC mass tags, the degradation was also studied in a buffered aqueous solution by dissolving the compounds in a 50/50 solution of d-DMSO/PBS buffer. The compounds were kept in an environment exposed to air and ambient lighting at room temperature. ^19F NMR was used to study compound 10 using a trifluoroacetic acid internal standard while ^1H NMR was used to study the degradation compound 11 using the d5-DMSO internal standard. […] However, under the same conditions the tellurophene 11 was stable.

[5] = system: HCT116 cells; assay: Mass cytometry hypoxia labelling (130Te signal); type: cell-based
Description: FIGS. 4A-E show a schematic representation and density maps and plots. FIG. 4A is a schematic representation of Telox/Telox2 cell labelling for analysis via mass cytometry on a second-generation CyTOF instrument. FIG. 4b) is a density map of signal event length vs. ^130Te signal (arbitrary units). FIG. 4c) is a density plot output from the top-right gate in b) of ^193Ir signal (arbitrary units) vs. ^103Rh signal (arbitrary units). More than 93% of detected events fall in the square gate. FIG. 4d) is a density plot output from the bottom-left gate in b) of ^193Ir signal (arbitrary units) vs. ^103Rh signal (arbitrary units). More than 89% of detected events fall in the square gate. FIG. 4e) is a population histograms of cell ^130Te content (arbitrary units). Oxygen concentrations are listed as numerical percentages, P=Pimonidazole (100 μM). Blue and red histograms are Pimonidazole-negative controls. Orange and green histograms are Pimonidazole- positive competition experiments. Note: warmer colors in density plots indicate higher cell population density.
FIGS. 8A and B show a) the absolute ^130Te signal as a function of concentration as determined by mass cytometry analysis of HCT116 cells incubated with the exemplary compound, Telox-2, for 3 hours in either near-anoxic (˜0% O2), hypoxic (˜1% O2) or normoxic (21% O2) atmosphere; and b) the signal-to-noise (fold-change) representation of the data presented in part a.
FIGS. 9A-D show a) Absolute ^130Te signal as a function of time as determined by mass cytometry analysis of HCT116 cells incubated with 10 μM of the exemplary compound,Telox-2 (constant exposure), in either near-anoxic (˜0% O2), hypoxic (˜1% O2) or normoxic (21% O2) atmosphere; b) the signal-to-noise (fold-change) representation of the data presented in part a; and c) the absolute ^130Te signal as a function of time as determined by mass cytometry analysis of HCT116 cells incubated with 10 μM Telox-2 for 3 hours followed by replacement of Telox-2-containing media with fresh media in either near-anoxic (˜0% O2), hypoxic (˜1% O2) or normoxic (21% O2) atmosphere; and d) the signal-to-noise (fold-change) representation of the data presented in part c.
HCT116 (500,000) cells were seeded in 60 mm plastic petri dishes (Corning Inc., NY) and incubated for 24 h at 37° C., 21% O2/5% CO2. The cells were transferred to hypoxia chambers (H35/H85 hypoxia workstation, Don Whitley Scientific) maintained at 1%/0.2% or <0.02% O2 for 3 h. Hypoxia experiments (<0.02% O2) were performed by seeding the cells in 60 mm glass plates (Corning Inc., NY).
HCT 116 cells (see sections i and ii) were incubated in media containing Telox or Telox2 (100 μM, added as a neat solution in sterile DMSO; final [DMSO]=0.1%) for 3 hours under atmosphere containing an appropriate concentration of O2. Following incubation, the media was removed, cells were washed with sterile PBS, and then separated from the incubation plate via trypsinization (37° C., 10 min) and gentle scraping. The cell suspension was pelleted and resuspended in PBS containing β-ME (1.0 mL, 100 mM). Cells were pelleted, resuspended in PBS (900 μL, no β-ME), and fixed with formaldehyde (100 μL, 37% solution) for 25 minutes. Following fixation, cells were pelleted, resuspended in PBS containing β-ME (1.0 mL, 100 mM), and pelleted once again. Cells were then resuspended in PBS ([…], no β-ME) and incubated with either the Ir-containing nucleic acid intercalator (hypoxic cells) or the Rh containing nucleic acid intercalator (normoxic cells) (10 μL, 100 μM solution in sterile PBS) for 20 minutes. Cells were then pelleted and resuspended in PBS (1.0 mL, no β-ME) twice. Cell pellets were then resuspended in PBS containing ^151/153EU beads (1/10 dilution of CyTOF® calibration beads, DVS Sciences, 1.0-2.5 mL depending on pellet size). The two cells samples were then combined (250 μL of each) and 250 μL of the resultant sample was injected onto a second-generation CyTOF® instrument for MC analysis. […]

[6] = Stability of the Telox telluroether (summary statement); type: physicochemical

In the case of `C[Te]CCCO` [Compound 2, 3-methyltellanyl-1-propanol], the “degradation over 24 hours (1H NMR)” value [1] was “approximately 75%”.
In the case of `COC(=O)CC[Te]C` [Compound 3, methyl 3-methyltellanyl-propionate], the “degradation over 24 hours (1H NMR)” value [1] was about 85%.
For `COC(=O)CCC[Te]C` [Compound 4, methyl 4-methyltellanyl-butanoate], the “degradation over 24 hours (1H NMR)” value [1] was “approximately 15%”.
For `COC(=O)CCC[Te]C(F)(F)F` [Compound 5, methyl 4-((trifluoromethyl)tellanyl)butanoate], the “degradation over 24 hr incubation (1H NMR), in words” value (“degradation over 24 hr incubation” below) [1] was “no degradation was observed”.
With `O=C(O)CCc1ccc[te]1` [Compound 6] the “degradation over 24 hr incubation” value [1] was “degraded insignificantly”.
For `OCCc1ccc[te]1` [Compound 7, 2-(tellurophen-2-yl)ethan-ol], the “degradation over 24 hr incubation” value [1] was “degraded insignificantly”.
In the case of `C[Te]CCCOC(=O)NCc1ccccc1` [Compound 8], the “solubility, in words” value [2] was “lack of solubility”, the LD50 [3] was 610 ± 290 µM and the “LD50 (metabolic toxicity)” value [3] was 610 µM.
With `C[Te]CCCC(=O)NCc1ccccc1` [Compound 9, N-benzyl-4-(methyltellanyl)butanamide] the LD50 [3] was 180 ± 60 µM.
For `O=C(CCC[Te]C(F)(F)F)NCc1ccccc1` [Compound 10, N-benzyl-4-((trifluoromethyl)tellanyl)butamide], the “degradation over 24 hr incubation” value [1] was “stable”, the “degradation after 24 hours in d-DMSO/PBS” value ([4]; 19F NMR) was 60% and the LD50 [3] was 130 ± 20 µM.
With `O=C(CCc1ccc[te]1)NCc1ccccc1` [Compound 11, N-benzyl-3-(tellurophen-2-yl)propanamide] the “degradation over 24 hr incubation” value [1] was “stable”, the “stability in d-DMSO/PBS, in words” value ([4]; 1H NMR, 24 hours) was “stable” and the LD50 [3] was 280 ± 30 µM. For the same molecule, the “LD50 (metabolic toxicity)” value [3] was 280 µM.
With `C[Te]CCCOC(=O)NCCNC(=O)Cn1ccnc1[N+](=O)[O-]` [Telox] the “detected events in the square gate, top-right (130Te) gate, 193Ir vs 103Rh” value ([5]; FIG. 4c) was “More than 93%”, the “detected events in the square gate, bottom-left (130Te) gate, 193Ir vs 103Rh” value ([5]; FIG. 4d) was “More than 89%” and the “stability of telluroether functionality, in words” value [6] was “moderate stability”. For the same molecule, the “metabolic LD50, in words” value ([3]; Telox, summary statement) was “close to the required assay concentration”.
